In article PMC11421016, “Biotransformation and Epithelial Toxicity of Prenylated Phenolics from Licorice Roots (Glycyrrhiza spp.) in 3D Apical-Out Mucus-Producing Human Enteroids” (Journal of Agricultural and Food Chemistry, 2024):

Tested on: human apical-out ileal enteroids
Assay: Biotransformation in apical-out ileal enteroids (RP-UHPLC-PDA-MSn)
Type: in vitro ADME
Details: glycy 265 μM at t = 0 h
Procedure: Biotransformation of glab, licoA, and glycy in apical-out and apical-in enteroids was evaluated after 0, 4, and 24 h of incubation. For this, apical-out enteroids were stimulated with 50 μg mL^–1 (154 μM) glab, or with 100 μg mL^–1 licoA (296 μM), or 100 μg mL^–1 glycy (272 μM), and apical-in enteroids were stimulated with 50 μg mL^–1 glab (154 μM), 50 μg mL^–1 licoA (148 μM), or 50 μg mL^–1 glycy (136 μM). […] For apical-out enteroids, parent compounds and their transformation products were assessed on the enteroids’ apical (facing the medium) and basolateral side (inside the enteroids) and intracellularly. In apical-in enteroids, parent compounds and metabolites were assessed on the basolateral side (facing the medium). For the apical release, apical-out enteroids were pelleted (250g, 3 min, 4 °C), and the supernatant was used for LC-MS analysis, after which the enteroids were washed with PBS. Enteroids in a suspension in fresh PBS were broken up by vigorously pipetting up and down approximately for 20 times, after which enteroids were pelleted and the supernatant was used to determine basolateral release by using LC-MS. Enteroids were washed with PBS, and the enteroids’ cells in fresh PBS were disrupted on ice with a digital sonifier (Branson Ultrasonics Corporation, Danbury, CT, USA) with the following settings: a 5 s pulse, a 10 s pause, an amplitude of 55%, and 12 cycles. Enteroids were pelleted, and the supernatant was used as a measure for intracellular release and measured with LC-MS.
Samples were separated on a Thermo Vanquish UHPLC system (Thermo Scientific, San Jose, CA, USA) equipped with a pump, a degasser, an autosampler, and a PDA detector, as described elsewhere.[15] Eluents used were (A) LC-MS-grade MQ + 0.1% FA (v/v) and (B) LC-MS-grade ACN + 0.1% FA (v/v). The elution program was started by running isocratically at 1% B for 1.09 min followed by a 1.09–26.16 min linear gradient to 70% B, a 26.16–27.25 min linear gradient to 100% B, and 27.25–32.70 min isocratically at 100% B. The eluent was adjusted to start conditions in 1.09 min followed by equilibration of 5.45 min.
Mass spectrometric data were acquired using an LTQ Velos Pro linear ion trap mass spectrometer (Thermo Scientific), equipped with a heated ESI probe coupled in-line to the Vanquish UHPLC system, as described elsewhere.[15] Data were processed using Xcalibur 4.1 (Thermo Scientific).
Quantification of glab, licoA, glycy, and produced metabolites was based on UV absorbance at 280 nm (glab), 340–390 nm (licoA), and 320–370 nm (glycy). For this, a seven-point calibration (0.01–150 μg mL^–1) curve based on external standards of glab, licoA, and glycy (R^2 > 0.999) was used. UV peaks were integrated using the AVALON integration algorithm with the autocalc function (Xcalibur 4.1). Metabolites were quantified as glab, licoA, or glycy equivalents.

## glycycoumarin-glucuronide [glycy-glucuronide]
After 4 h
  glucuronide concentration released at the apical side: ~3 µM
After 24 h
  glucuronide concentration released at the apical side: ~16 µM
